Experimental data as given in patent US20220372491A1, “TREATMENT OF RENAL CYSTIC DISEASE” (MONASH UNIVERSITY, priority 2019, published 2022).

How the values were obtained:
Inpp5e^Δ/Δ mice = experiment: Oral Alisertib treatment of Inpp5e^Δ/Δ mice (Joubert Syndrome associated PKD model); assay type: in vivo, mouse
Protocol: (§1) Alisertib treatment was performed based on previously published protocols (Nikonova et al., (2014) PNAS 111:12859-12864; Nikonova (2015) Frontiers Oncol. 5:228), as follows: Starting at P9 Inpp5e^Δ/Δ and Inpp5e^Δ/Δ mice were treated once daily for 5 days with Alisertib delivered orally by pipette in a suspended solution with a final composition of 3.6 mg/ml Alisertib ([…], Selleck Chemicals) in 10% 2-hydroxypropyl-β-cyclodextrin ([…]-10ML, Sigma-Aldrich) with 1% (vol/vol) sodium bicarbonate ([…]-100ML, Sigma-Aldrich) and 5% glucose (49163-100ML, Sigma-Aldrich). Mice were dosed with a volume to deliver Alisertib at 10 mg/kg. Mouse body weights were recorded daily. Solutions were stored at 4 degrees for up to 1 month. […] Mice were then given 2 recovery days before being sacrificed at P15. This time frame was selected as it corresponded to an exponential rise in cyst number in Inpp5e^Δ/Δ mice. Aurka^Δ/Δ and Inpp5e^Δ/Δ; Aurka^Δ/Δ treatment groups were also included to determine the AURKA specificity of any phenotypes observed given Alisertib's broad drug targeting profile. Mice were culled via cervical dislocation or decapitation, as most appropriate for their age following ethical guidelines. Procedures were all conducted by ethically approved and trained personnel. Mice were measured for body weight, with ear tissue, urine and kidneys collected. Ear tissue and urine was stored at -20 degrees. Newborn and P4 kidneys were fixed whole in 4% PFA for 16 hrs at 4 degrees, while the kidney capsule membrane was removed from older mouse kidneys, with the kidney cut into halves and fixed in 10% NBF for 16 hrs at room temperature. Half the kidney samples were sent for histological processing and the other half were snap frozen and stored at -80 degrees until processed for RNA, alpha analysis and/or western blotting. Kidney tissues were paraffin imbedded and sectioned at 4 μm for most analysis with the exception of being sectioned at 10 μm for cilia analysis. Antigen retrieval was performed in Citrate buffer pH6 using Tefal pressure cooker or using a DAKO […] system as indicated. Antibody staining was performed as described elsewhere (Cottle et al., (2013) Cell reports, 3: 427-441), except triton x-100 was included in blocking buffers, and cover slips mounted using Prolong Gold (Invitrogen). Antibodies and stains are listed below. Imaging was using an Aperio brightfield and fluorescent scanners (MHP), Olympus Fluoview 500 (Biochemistry Imaging Suite), Nikon C2 or Leica SP8 confocal microscope (MMI). All quantifications with the exception of Nanostring analysis and Chi squared tests for analysis of mendelian ratios, were analyzed using the unpaired Student's t-test assuming unequal variance in Microsoft Excel and P≤0.05 values were considered significant. One or two tailed tests were selected as appropriate for hypothesis. Values presented are Mean±Standard Error of the Mean (S.E.M). 2K/BW % was calculated as the combined kidney weight over total body weight percentage. Albumin Creatinine Ratios (ACR) were calculated as μg Albumin over mg of Creatinine. Cyst identity was measured as a proportion of cyst epithelial area for each marker out of total sum of cyst epithelial areas of all markers (adjusted for marker co-localisation). Cystic index % is calculated as the proportion of cystic space occupied out of total kidney area in DBA-stained kidney longitudinal cross-sections. Cyst number reflects the average number of cysts counted per DBA-stained longitudinal kidney cross section. Cyst size is the average cross-sectional cyst size (mm^2) of cysts sampled from DBA-stained kidney longitudinal cross sections. Due to escape of Cre activity at the Aurka locus in cysts, unless otherwise indicated references to Inpp5e^Δ/Δ; Aurka^Δ/Δ immunostains and their quantifications reflect non-cystic regions throughout this study.

[1] = system: Inpp5e^Δ/Δ; Aurka^Δ/Δ mice; experiment: Oral Alisertib treatment of Inpp5e^Δ/Δ; Aurka^Δ/Δ (double mutant) mice; assay type: in vivo, mouse
Protocol: as §1

mIMCD3 cells = experiment: Western blots and densitometry of mIMCD3 cell lysates treated with Alisertib; assay type: cell-based, mouse
Protocol: mIMCD3 cells were grown as previously described (Plotnikova et al., (2015) J. Cell Sci. 128: 364-372). Using a hemocytometer, mIMCD3 cells were seeded in 6 well dishes at 1.3×10^5 cells per well in growth media and incubated overnight at 37° C. in 5% CO2. Lipofectamine 3000 Reagent kit (Invitrogen) was used for plasmid transfection according to manufacturer's protocol (3.75 μl of Lipofectamine 3000, 2.5 μg DNA and 5 μl of P3000 reagent in each well). siRNA transfections were also performed with Lipofectamine 3000 (Invitrogen) according to manufacturer's protocol (0.75 μl of Lipofectamine 3000, 25 pmol siRNA in each well). Plasmids included pCGN (HA-tag)^48, pCGN-HA-AURKA (gift from Olga Plotniknova), and pCGN-HA-AURKA KD (made in this study using Q5 Site-Directed Mutagenesis Kit NEB.E0554S according to manufacturer's protocol to contain the K162R variant described for pCDNA3.1-mRFP-AURKA K162R). All plasmids were prepared with Qiagen plasmid midiprep kits. siRNAs were All Stars negative control siRNA (S103650318, Qiagen) and Mm_Aurka_1 Flexitube siRNA (S100908803, Qiagen). Alisertib (10 mM in DMSO, S1133, SelleckChem) was added to media at 1 μM final concentration where indicated.
Following ˜16 hrs after plasmid and siRNA transfections, fresh growth media was placed on mIMCD3 cells and wells harvested up to 24 hrs later. Alternatively, for serum-starvation conditions, 0.5% serum containing was placed on mIMCD3 cells and wells harvested after 24 hrs. For serum-restimulation conditions mIMCD3 cells were first placed in 0.5% serum media for 24 hrs before addition of fresh growth media for up to 20 mins before harvest. For immunofluorescence experiments, mIMCD3 cells were grown on collagen I-coated 22×22 mm coverslips and processed as described in Cottle et al., (2007) J. Cell Sci. 120: 1423-1435 and Wiradjaja et al., (2013) Disease models & mechanisms, 6: 1426-1433).
Tissue extracts were prepared in AlphaLISA Surefire Ultra lysis buffer. Cell extracts were prepared in 1% Triton X-100 in Tris-buffered saline pH7.4 with Roche complete mini protease and PhosSTOP inhibitor tablets as described above. Immunoblotting was performed using standard techniques, with antibodies listed below. Densitometry values were determined using ImageJ software and occasional extreme outliers more than 2 standard deviations from the mean omitted.

[2] = Solubility of Alisertib in the oral dosing vehicle; assay type: physicochemical; settings: 3.6 mg/ml in 10% 2-hydroxypropyl-β-cyclodextrin, 1% sodium bicarbonate, 5% glucose
Protocol: Alisertib treatment was performed based on previously published protocols (Nikonova et al., (2014) PNAS 111:12859-12864; Nikonova (2015) Frontiers Oncol. 5:228), as follows: Starting at P9 Inpp5e^Δ/Δ and Inpp5e^Δ/Δ mice were treated once daily for 5 days with Alisertib delivered orally by pipette in a suspended solution with a final composition of 3.6 mg/ml Alisertib (S1133, Selleck Chemicals) in 10% 2-hydroxypropyl-β-cyclodextrin (H5784-10ML, Sigma-Aldrich) with 1% (vol/vol) sodium bicarbonate (S8761-100ML, Sigma-Aldrich) and 5% glucose (49163-100ML, Sigma-Aldrich). Mice were dosed with a volume to deliver Alisertib at 10 mg/kg. Mouse body weights were recorded daily. Solutions were stored at 4 degrees for up to 1 month. […] Mice were then given 2 recovery days before being sacrificed at P15. This time frame was selected as it corresponded to an exponential rise in cyst number in Inpp5e^Δ/Δ mice. Aurka^Δ/Δ and Inpp5e^Δ/Δ; Aurka^Δ/Δ treatment groups were also included to determine the AURKA specificity of any phenotypes observed given Alisertib's broad drug targeting profile.

[3] = system: adult mouse models of ADPKD; settings: cited from earlier work
[4] = Inpp5e^Δ/Δ mice, 10 mg/kg orally P9 to P13, P15, vs vehicle
[5] = double mutant mice, relative to vehicle controls
[6] = mice in which Aurka had been predominantly deleted, 10 mg/kg orally P9 to P13, P15
[7] = 1 μM Alisertib, 48 hrs, growth conditions

## COc1cc(Nc2ncc3c(n2)-c2ccc(Cl)cc2C(c2c(F)cccc2OC)=NC3)ccc1C(=O)O [Alisertib]
Inpp5e^Δ/Δ mice; 10 mg/kg orally once daily P9 to P13, tissue at P15
  levels of nuclear localised active p53 in collecting duct cells: increased levels of nuclear localised active p53
Inpp5e^Δ/Δ mice; Inpp5e^Δ/Δ kidneys, vs vehicle
  cilia number (% ciliated collecting duct cells): markedly reduced cilia number
  co-expression of high levels of AURKA and AKT pT308 in collecting duct cells: increased co-expression of high levels of AURKA and AKT pT308
Inpp5e^Δ/Δ mice; [4]
  cyst size: reduced cyst size
  kidney to body weight ratio and kidney size: marked reduction in kidney to body weight ratio and kidney size
  number of cysts: increased in the number of cysts
Inpp5e^Δ/Δ mice; all Alisertib-treated mouse cohorts vs vehicle, 10 mg/kg orally once daily P9 to P13, tissue at P15
  hair loss: hair loss observed in all treated mouse cohorts
Inpp5e^Δ/Δ mice; cystic genotypes Inpp5e^Δ/Δ and Inpp5e^Δ/Δ, Aurka^Δ/Δ, vs vehicle
  cystic index %: no Alisertib-induced changes
[1]; [5]
  AKT pT308 expression: did not show reduced ciliation or AKT pT308 expression
  ciliation: did not show reduced ciliation
[1]; [6]
  cyst index: No change
  cyst number: No change
  cyst size: No change
  kidney to body weight ratio: No change
mIMCD3 cells; 1 μM Alisertib, 48 hrs of exposure, growth conditions
  AURKA protein level: two-fold increase in AURKA protein
mIMCD3 cells; [7]
  AKT phosphorylation at S473 (AKT pS473/total AKT expression ratio): but not S473
  AKT phosphorylation at T308 (AKT pT308/total AKT expression ratio): increasing AKT phosphorylation at T308
  total AKT: modestly reducing total AKT
mIMCD3 cells; 24 hrs of Alisertib exposure
  rebound increase of AKT T308 phosphorylation: not observed following 24 hrs of Alisertib exposure
mIMCD3 cells; Alisertib or vehicle for 48 hrs under growth conditions
  AURKA T288 phosphorylation ratio: reduces the AURKA T288 phosphorylation ratio
[2]
  solubility in dosing vehicle: largely insoluble
[3]
  cystic disease: exaggerates cystic disease
